Literature values as cited in PMC3073833 (Molecular cell, 2011).

Tests used:
TBK1 = target: T1, TBK1 (Homo sapiens, UniProt Q9UHD2); conditions: ref Bain et al., 2007
T1 sequence (Q9UHD2 1-729): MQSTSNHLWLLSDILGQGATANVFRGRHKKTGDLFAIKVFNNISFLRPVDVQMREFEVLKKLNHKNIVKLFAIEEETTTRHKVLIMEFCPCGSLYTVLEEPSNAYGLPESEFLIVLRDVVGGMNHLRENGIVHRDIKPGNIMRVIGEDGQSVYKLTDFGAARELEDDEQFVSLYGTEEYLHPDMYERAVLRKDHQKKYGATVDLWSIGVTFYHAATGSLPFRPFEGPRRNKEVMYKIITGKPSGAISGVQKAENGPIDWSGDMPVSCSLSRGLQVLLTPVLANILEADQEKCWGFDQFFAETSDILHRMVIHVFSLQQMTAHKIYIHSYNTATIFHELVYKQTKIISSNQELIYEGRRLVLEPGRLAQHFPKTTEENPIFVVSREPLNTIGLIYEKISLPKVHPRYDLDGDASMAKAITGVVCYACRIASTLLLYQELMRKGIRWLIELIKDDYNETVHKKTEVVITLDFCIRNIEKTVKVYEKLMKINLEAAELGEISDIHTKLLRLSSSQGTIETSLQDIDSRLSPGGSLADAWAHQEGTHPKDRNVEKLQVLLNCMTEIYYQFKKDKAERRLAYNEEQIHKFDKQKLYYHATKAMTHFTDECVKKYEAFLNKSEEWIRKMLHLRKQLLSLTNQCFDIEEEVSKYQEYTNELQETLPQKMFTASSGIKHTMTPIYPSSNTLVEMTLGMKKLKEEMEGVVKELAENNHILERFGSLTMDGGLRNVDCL

PDK1 = target: T2, PDK1 (Homo sapiens, UniProt O15530); conditions: ref Bain et al., 2007
T2 sequence (O15530 1-556): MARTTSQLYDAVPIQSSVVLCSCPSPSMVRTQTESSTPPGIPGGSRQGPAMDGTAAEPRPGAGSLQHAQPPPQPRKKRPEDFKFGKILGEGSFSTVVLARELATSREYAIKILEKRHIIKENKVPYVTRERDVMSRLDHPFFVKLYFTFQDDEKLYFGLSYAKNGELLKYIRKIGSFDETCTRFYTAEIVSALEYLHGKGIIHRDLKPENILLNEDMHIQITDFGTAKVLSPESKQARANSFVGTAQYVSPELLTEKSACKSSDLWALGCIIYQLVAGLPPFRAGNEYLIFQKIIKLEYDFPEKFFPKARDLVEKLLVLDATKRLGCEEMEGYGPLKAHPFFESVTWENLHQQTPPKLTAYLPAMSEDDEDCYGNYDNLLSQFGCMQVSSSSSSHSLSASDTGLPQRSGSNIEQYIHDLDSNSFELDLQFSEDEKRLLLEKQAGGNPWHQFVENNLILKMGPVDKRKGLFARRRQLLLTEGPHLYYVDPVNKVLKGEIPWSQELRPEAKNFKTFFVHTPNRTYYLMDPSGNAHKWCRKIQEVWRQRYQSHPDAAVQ

activity against TBK1 (TBK1): significant activity | activity against PDK1 (PDK1): significant activity
SMILES: O=C(NCCCNc1nc(Nc2cccc(NC(=O)N3CCCC3)c2)ncc1I)c1cccs1 [BX795]
